{"source": "patent US10815230B2", "about": "“Casein kinase 1 delta inhibitor” (ELECTROPHORETICS LIMITED, priority 2015, dated 2020)", "experiment_in_all_cases": "KINOMEscan binding assay", "settings_in_all_cases": "read-out: % Ctrl @ 10000 nM", "key": {"CDK4-cyclinD1": {"target": "CDK4-cyclinD1 (Homo sapiens, UniProt P11802)"}, "SRPK1": {"target": "SRPK1 (Homo sapiens, UniProt Q96SB4)"}, "FLT4": {"target": "FLT4 (Homo sapiens, UniProt P35916)"}, "SIK2": {"target": "SIK2 (Homo sapiens, UniProt Q9H0K1)"}, "BMPR1B": {"target": "BMPR1B (Homo sapiens, UniProt O00238)", "sequence (O00238 14-502)": "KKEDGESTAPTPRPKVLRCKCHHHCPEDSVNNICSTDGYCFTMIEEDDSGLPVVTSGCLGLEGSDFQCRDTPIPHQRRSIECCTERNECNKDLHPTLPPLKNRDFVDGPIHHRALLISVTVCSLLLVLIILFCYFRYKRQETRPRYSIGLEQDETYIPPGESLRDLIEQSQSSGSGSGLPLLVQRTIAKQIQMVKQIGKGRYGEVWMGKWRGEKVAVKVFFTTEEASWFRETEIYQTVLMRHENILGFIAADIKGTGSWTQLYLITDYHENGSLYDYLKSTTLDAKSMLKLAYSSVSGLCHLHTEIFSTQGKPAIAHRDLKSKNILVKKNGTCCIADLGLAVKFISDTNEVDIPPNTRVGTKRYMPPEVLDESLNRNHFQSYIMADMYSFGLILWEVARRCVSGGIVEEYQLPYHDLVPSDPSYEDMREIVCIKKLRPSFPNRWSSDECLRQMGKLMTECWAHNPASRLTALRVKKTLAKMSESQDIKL"}, "PIK3CD": {"target": "PIK3CD (Homo sapiens, UniProt O00329)", "sequence (O00329 whole entry)": "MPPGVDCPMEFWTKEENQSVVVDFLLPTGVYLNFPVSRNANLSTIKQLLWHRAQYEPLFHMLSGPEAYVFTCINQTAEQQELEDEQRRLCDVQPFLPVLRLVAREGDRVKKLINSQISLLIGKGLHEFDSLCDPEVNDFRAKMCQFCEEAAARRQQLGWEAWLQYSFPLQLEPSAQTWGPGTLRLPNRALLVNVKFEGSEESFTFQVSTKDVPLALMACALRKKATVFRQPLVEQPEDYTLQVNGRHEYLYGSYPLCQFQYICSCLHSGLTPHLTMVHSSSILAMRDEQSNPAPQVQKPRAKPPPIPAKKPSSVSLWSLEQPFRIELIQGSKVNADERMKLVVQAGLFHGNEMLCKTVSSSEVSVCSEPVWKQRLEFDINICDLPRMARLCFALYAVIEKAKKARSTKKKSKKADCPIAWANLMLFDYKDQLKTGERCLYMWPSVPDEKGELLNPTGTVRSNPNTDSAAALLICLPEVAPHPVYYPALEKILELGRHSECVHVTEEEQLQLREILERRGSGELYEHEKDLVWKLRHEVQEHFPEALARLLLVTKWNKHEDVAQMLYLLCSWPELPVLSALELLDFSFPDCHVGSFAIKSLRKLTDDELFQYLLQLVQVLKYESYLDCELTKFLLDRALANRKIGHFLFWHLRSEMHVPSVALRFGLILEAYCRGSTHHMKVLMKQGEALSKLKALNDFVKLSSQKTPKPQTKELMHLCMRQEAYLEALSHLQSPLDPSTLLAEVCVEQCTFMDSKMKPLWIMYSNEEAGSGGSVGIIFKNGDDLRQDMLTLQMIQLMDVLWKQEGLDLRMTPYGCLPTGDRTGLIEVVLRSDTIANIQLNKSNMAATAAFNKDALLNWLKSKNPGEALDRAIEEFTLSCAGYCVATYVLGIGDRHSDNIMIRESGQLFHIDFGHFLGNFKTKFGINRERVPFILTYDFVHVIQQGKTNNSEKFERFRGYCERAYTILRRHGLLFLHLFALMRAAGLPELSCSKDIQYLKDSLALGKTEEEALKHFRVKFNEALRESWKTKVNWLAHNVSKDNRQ"}, "BLK": {"target": "BLK (Homo sapiens, UniProt P51451)", "sequence (P51451 whole entry)": "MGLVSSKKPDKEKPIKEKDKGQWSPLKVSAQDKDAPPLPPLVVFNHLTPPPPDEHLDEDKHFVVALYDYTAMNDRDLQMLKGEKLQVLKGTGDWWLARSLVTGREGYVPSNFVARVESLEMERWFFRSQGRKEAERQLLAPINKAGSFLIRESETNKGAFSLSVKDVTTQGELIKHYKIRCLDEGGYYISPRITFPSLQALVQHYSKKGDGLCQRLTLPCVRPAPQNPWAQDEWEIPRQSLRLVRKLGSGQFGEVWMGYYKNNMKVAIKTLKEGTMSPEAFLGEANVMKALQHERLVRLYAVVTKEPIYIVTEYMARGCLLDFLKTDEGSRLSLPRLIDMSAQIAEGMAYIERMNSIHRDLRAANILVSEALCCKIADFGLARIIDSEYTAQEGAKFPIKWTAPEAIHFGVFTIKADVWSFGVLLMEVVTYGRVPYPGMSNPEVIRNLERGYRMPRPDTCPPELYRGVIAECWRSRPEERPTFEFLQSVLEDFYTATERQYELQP"}, "PFTAIRE2": {"target": "PFTAIRE2 (Homo sapiens, UniProt Q96Q40)"}, "LYN": {"target": "LYN (Homo sapiens, UniProt P07948)"}, "CDKL3": {"target": "CDKL3 (Homo sapiens, UniProt Q8IVW4)"}, "DAPK1": {"target": "DAPK1 (Homo sapiens, UniProt P53355)"}, "MAP3K3": {"target": "MAP3K3 (Homo sapiens, UniProt Q99759)"}, "CSF1R": {"target": "CSF1R (Homo sapiens, UniProt P07333)"}, "VEGFR2": {"target": "T1, VEGFR2 (Homo sapiens, UniProt P35968)", "T1 construct": "purchased DiscoveRx (KINOMEscan, LeadHunter Discovery services)"}, "DAPK3": {"target": "DAPK3 (Homo sapiens, UniProt O43293)"}, "PKMYT1": {"target": "PKMYT1 (Homo sapiens, UniProt Q99640)"}, "MEK4": {"target": "MEK4 (Homo sapiens, UniProt P45985)"}, "NDR2": {"target": "NDR2 (Homo sapiens, UniProt Q9Y2H1)"}, "MARK1": {"target": "MARK1 (Homo sapiens, UniProt Q9P0L2)"}, "TIE2": {"target": "TIE2 (Homo sapiens, UniProt Q02763)"}, "RET (M918T)": {"target": "RET (M918T) (Homo sapiens, UniProt P07949, M918T)"}, "TAOK2": {"target": "TAOK2 (Homo sapiens, UniProt Q9UL54)"}, "MUSK": {"target": "MUSK (Homo sapiens, UniProt O15146)"}, "PCTK1": {"target": "PCTK1 (Homo sapiens, UniProt Q00536)"}, "AAK1": {"target": "AAK1 (Homo sapiens, UniProt Q2M2I8)"}, "[1]": {"target": "ABL1 (T315I) phosphorylated (Homo sapiens, UniProt P00519, T315I)"}, "PIK4CB": {"target": "PIK4CB (Homo sapiens, UniProt Q9UBF8)"}, "PIK3C2G": {"target": "PIK3C2G (Homo sapiens, UniProt O75747)"}, "PLK2": {"target": "PLK2 (Homo sapiens, UniProt Q9NYY3)", "sequence (Q9NYY3 whole entry)": "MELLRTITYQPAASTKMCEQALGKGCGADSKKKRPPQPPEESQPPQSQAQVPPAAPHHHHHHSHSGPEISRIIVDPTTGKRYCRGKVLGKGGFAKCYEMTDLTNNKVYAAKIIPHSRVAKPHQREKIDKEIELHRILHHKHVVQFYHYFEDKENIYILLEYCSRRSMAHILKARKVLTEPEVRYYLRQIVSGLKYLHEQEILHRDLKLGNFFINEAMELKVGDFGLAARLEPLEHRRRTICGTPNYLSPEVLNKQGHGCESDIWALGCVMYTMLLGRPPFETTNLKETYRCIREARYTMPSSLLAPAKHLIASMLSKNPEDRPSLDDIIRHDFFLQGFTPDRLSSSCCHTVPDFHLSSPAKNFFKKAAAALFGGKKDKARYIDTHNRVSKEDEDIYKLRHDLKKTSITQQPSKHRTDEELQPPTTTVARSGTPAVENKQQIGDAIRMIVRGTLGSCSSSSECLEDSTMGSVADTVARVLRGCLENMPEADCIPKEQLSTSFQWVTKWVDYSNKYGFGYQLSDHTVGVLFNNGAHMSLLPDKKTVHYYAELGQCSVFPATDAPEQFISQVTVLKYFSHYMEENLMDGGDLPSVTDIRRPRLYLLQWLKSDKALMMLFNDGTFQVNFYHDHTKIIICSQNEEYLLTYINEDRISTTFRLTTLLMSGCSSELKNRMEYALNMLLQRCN"}, "PFPK5 P. falciparum": {"target": "PFPK5 P. falciparum (Plasmodium falciparum, UniProt P61075)", "sequence (P61075 whole entry)": "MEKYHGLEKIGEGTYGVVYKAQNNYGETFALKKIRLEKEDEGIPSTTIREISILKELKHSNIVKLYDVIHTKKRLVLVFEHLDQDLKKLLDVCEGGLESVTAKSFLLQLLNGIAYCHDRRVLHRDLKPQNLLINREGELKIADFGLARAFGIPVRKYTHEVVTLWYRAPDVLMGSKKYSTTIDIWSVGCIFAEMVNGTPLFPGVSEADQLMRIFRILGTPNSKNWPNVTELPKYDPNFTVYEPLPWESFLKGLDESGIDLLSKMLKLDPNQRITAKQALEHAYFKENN"}, "[2]": {"target": "JAK1 (JH2domain-pseudokinase) (Homo sapiens, UniProt P23458)"}, "GRK4": {"target": "GRK4 (Homo sapiens, UniProt P32298)"}, "ERK3": {"target": "ERK3 (Homo sapiens, UniProt Q16659)", "sequence (Q16659 whole entry)": "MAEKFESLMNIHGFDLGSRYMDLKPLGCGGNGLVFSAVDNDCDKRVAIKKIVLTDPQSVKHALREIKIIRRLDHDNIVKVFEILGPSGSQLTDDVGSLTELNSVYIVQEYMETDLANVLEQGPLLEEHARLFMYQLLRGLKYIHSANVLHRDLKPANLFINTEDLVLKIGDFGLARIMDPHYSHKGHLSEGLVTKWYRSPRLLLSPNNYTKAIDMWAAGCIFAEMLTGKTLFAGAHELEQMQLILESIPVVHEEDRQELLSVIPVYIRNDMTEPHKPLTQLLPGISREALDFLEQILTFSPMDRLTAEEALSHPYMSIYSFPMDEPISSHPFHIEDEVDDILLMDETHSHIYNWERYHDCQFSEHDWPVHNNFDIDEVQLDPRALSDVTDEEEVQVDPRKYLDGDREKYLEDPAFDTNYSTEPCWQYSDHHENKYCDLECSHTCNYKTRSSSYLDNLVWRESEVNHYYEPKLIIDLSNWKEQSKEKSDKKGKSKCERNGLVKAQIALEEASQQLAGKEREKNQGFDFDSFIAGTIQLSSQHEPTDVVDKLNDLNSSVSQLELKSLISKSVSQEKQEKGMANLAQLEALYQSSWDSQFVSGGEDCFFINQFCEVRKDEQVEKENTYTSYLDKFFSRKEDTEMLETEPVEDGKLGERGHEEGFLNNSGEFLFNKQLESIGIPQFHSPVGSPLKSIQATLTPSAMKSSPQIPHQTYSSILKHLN"}, "ROCK2": {"target": "ROCK2 (Homo sapiens, UniProt O75116)"}, "TGFBR1": {"target": "TGFBR1 (Homo sapiens, UniProt P36897)"}, "STK16": {"target": "STK16 (Homo sapiens, UniProt O75716)", "sequence (O75716 whole entry)": "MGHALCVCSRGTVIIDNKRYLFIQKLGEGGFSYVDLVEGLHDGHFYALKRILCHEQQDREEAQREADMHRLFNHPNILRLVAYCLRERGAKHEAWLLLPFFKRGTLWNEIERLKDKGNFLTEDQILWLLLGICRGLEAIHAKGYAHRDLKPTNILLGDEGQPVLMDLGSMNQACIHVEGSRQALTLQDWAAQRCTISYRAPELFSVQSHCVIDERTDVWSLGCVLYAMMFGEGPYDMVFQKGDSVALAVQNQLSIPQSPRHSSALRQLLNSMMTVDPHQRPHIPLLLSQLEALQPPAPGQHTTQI"}, "EPHA7": {"target": "EPHA7 (Homo sapiens, UniProt Q15375)", "sequence (Q15375 28-998)": "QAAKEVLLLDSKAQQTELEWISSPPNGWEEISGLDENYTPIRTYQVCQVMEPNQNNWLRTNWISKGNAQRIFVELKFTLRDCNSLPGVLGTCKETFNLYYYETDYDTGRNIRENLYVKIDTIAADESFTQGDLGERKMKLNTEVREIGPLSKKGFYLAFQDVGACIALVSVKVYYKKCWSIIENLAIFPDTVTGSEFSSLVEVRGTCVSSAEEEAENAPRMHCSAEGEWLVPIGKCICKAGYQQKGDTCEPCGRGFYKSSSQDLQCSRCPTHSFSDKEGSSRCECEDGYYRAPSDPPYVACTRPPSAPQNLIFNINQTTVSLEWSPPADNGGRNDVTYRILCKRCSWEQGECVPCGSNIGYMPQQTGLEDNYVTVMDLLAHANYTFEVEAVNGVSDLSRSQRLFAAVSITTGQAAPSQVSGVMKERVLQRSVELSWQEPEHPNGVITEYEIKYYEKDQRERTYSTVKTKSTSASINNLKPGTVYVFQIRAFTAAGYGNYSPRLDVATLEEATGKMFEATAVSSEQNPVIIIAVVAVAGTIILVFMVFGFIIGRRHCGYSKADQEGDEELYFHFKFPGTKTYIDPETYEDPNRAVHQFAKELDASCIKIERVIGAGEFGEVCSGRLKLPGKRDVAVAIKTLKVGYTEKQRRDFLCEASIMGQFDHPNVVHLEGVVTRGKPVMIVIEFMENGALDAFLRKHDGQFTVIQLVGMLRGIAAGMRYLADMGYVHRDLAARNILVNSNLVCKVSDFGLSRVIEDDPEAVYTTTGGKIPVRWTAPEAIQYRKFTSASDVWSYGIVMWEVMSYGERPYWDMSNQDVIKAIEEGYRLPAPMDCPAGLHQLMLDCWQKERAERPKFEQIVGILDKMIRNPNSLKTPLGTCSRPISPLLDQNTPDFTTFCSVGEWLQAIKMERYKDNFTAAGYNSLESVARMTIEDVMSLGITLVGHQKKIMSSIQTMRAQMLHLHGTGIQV"}, "MST2": {"target": "MST2 (Homo sapiens, UniProt Q13188)"}, "BMPR1A": {"target": "BMPR1A (Homo sapiens, UniProt P36894)"}, "MINK": {"target": "MINK (Homo sapiens, UniProt Q8N4C8)"}, "SGK3": {"target": "SGK3 (Homo sapiens, UniProt Q96BR1)"}, "EPHB6": {"target": "EPHB6 (Homo sapiens, UniProt O15197)"}, "PCTK3": {"target": "PCTK3 (Homo sapiens, UniProt Q07002)"}}}
{"compound": "Nc1ncc(-c2nc3ccccc3o2)c(-c2ccncc2)n1", "note": "[Comparative Compound 324, 5-(1,3-benzoxazol-2-yl)-4-(pyridine-4-yl)pyrimidin-2-amine]", "values": [{"measurement": "remaining binding at 10 µM", "setting": "CDK4-cyclinD1", "result": 85, "unit": "%"}, {"measurement": "remaining binding at 10 µM", "setting": "SRPK1", "result": 64, "unit": "%"}, {"measurement": "remaining binding at 10 µM", "setting": "FLT4", "result": 79, "unit": "%"}, {"measurement": "remaining binding at 10 µM", "setting": "SIK2", "result": 100, "unit": "%"}, {"measurement": "remaining binding at 10 µM", "setting": "BMPR1B", "result": 80, "unit": "%"}, {"measurement": "remaining binding at 10 µM", "setting": "PIK3CD", "result": 100, "unit": "%"}, {"measurement": "remaining binding at 10 µM", "setting": "BLK", "result": 80, "unit": "%"}, {"measurement": "remaining binding at 10 µM", "setting": "PFTAIRE2", "result": 100, "unit": "%"}, {"measurement": "remaining binding at 10 µM", "setting": "LYN", "result": 99, "unit": "%"}, {"measurement": "remaining binding at 10 µM", "setting": "CDKL3", "result": 100, "unit": "%"}, {"measurement": "remaining binding at 10 µM", "setting": "DAPK1", "result": 87, "unit": "%"}, {"measurement": "remaining binding at 10 µM", "setting": "MAP3K3", "result": 76, "unit": "%"}, {"measurement": "remaining binding at 10 µM", "setting": "CSF1R", "result": 74, "unit": "%"}, {"measurement": "remaining binding at 10 µM", "setting": "VEGFR2", "result": 94, "unit": "%"}, {"measurement": "remaining binding at 10 µM", "setting": "DAPK3", "result": 100, "unit": "%"}, {"measurement": "remaining binding at 10 µM", "setting": "PKMYT1", "result": 100, "unit": "%"}, {"measurement": "remaining binding at 10 µM", "setting": "MEK4", "result": 70, "unit": "%"}, {"measurement": "remaining binding at 10 µM", "setting": "NDR2", "result": 96, "unit": "%"}, {"measurement": "remaining binding at 10 µM", "setting": "MARK1", "result": 100, "unit": "%"}, {"measurement": "remaining binding at 10 µM", "setting": "TIE2", "result": 98, "unit": "%"}, {"measurement": "remaining binding at 10 µM", "setting": "RET (M918T)", "result": 88, "unit": "%"}, {"measurement": "remaining binding at 10 µM", "setting": "TAOK2", "result": 98, "unit": "%"}, {"measurement": "remaining binding at 10 µM", "setting": "MUSK", "result": 100, "unit": "%"}, {"measurement": "remaining binding at 10 µM", "setting": "PCTK1", "result": 95, "unit": "%"}, {"measurement": "remaining binding at 10 µM", "setting": "AAK1", "result": 83, "unit": "%"}, {"measurement": "remaining binding at 10 µM", "setting": "[1]", "result": 85, "unit": "%"}, {"measurement": "remaining binding at 10 µM", "setting": "PIK4CB", "result": 96, "unit": "%"}, {"measurement": "remaining binding at 10 µM", "setting": "PIK3C2G", "result": 99, "unit": "%"}, {"measurement": "remaining binding at 10 µM", "setting": "PLK2", "result": 92, "unit": "%"}, {"measurement": "remaining binding at 10 µM", "setting": "PFPK5 P. falciparum", "result": 100, "unit": "%"}, {"measurement": "remaining binding at 10 µM", "setting": "[2]", "result": 17, "unit": "%"}, {"measurement": "remaining binding at 10 µM", "setting": "GRK4", "result": 100, "unit": "%"}, {"measurement": "remaining binding at 10 µM", "setting": "ERK3", "result": 100, "unit": "%"}, {"measurement": "remaining binding at 10 µM", "setting": "ROCK2", "result": 83, "unit": "%"}, {"measurement": "remaining binding at 10 µM", "setting": "TGFBR1", "result": 94, "unit": "%"}, {"measurement": "remaining binding at 10 µM", "setting": "STK16", "result": 89, "unit": "%"}, {"measurement": "remaining binding at 10 µM", "setting": "EPHA7", "result": 87, "unit": "%"}, {"measurement": "remaining binding at 10 µM", "setting": "MST2", "result": 94, "unit": "%"}, {"measurement": "remaining binding at 10 µM", "setting": "BMPR1A", "result": 100, "unit": "%"}, {"measurement": "remaining binding at 10 µM", "setting": "MINK", "result": 56, "unit": "%"}, {"measurement": "remaining binding at 10 µM", "setting": "SGK3", "result": 94, "unit": "%"}, {"measurement": "remaining binding at 10 µM", "setting": "EPHB6", "result": 65, "unit": "%"}, {"measurement": "remaining binding at 10 µM", "setting": "PCTK3", "result": 86, "unit": "%"}]}
{"compound": "CNc1c(C(N)=O)c2ccccn2c1C(=O)c1ccc(F)cc1", "note": "[Compound A, 2-methyl-amino-3-[(4-fluorophenyl)carbonyl]indolizine-1-carboxamide]", "values": [{"measurement": "remaining binding at 10 µM", "setting": "CDK4-cyclinD1", "result": 47, "unit": "%"}, {"measurement": "remaining binding at 10 µM", "setting": "SRPK1", "result": 49, "unit": "%"}, {"measurement": "remaining binding at 10 µM", "setting": "FLT4", "result": 62, "unit": "%"}, {"measurement": "remaining binding at 10 µM", "setting": "SIK2", "result": 59, "unit": "%"}, {"measurement": "remaining binding at 10 µM", "setting": "BMPR1B", "result": 81, "unit": "%"}, {"measurement": "remaining binding at 10 µM", "setting": "PIK3CD", "result": 100, "unit": "%"}, {"measurement": "remaining binding at 10 µM", "setting": "BLK", "result": 49, "unit": "%"}, {"measurement": "remaining binding at 10 µM", "setting": "PFTAIRE2", "result": 100, "unit": "%"}, {"measurement": "remaining binding at 10 µM", "setting": "LYN", "result": 54, "unit": "%"}, {"measurement": "remaining binding at 10 µM", "setting": "CDKL3", "result": 93, "unit": "%"}, {"measurement": "remaining binding at 10 µM", "setting": "DAPK1", "result": 77, "unit": "%"}, {"measurement": "remaining binding at 10 µM", "setting": "MAP3K3", "result": 48, "unit": "%"}, {"measurement": "remaining binding at 10 µM", "setting": "CSF1R", "result": 87, "unit": "%"}, {"measurement": "remaining binding at 10 µM", "setting": "VEGFR2", "result": 79, "unit": "%"}, {"measurement": "remaining binding at 10 µM", "setting": "DAPK3", "result": 86, "unit": "%"}, {"measurement": "remaining binding at 10 µM", "setting": "PKMYT1", "result": 52, "unit": "%"}, {"measurement": "remaining binding at 10 µM", "setting": "MEK4", "result": 43, "unit": "%"}, {"measurement": "remaining binding at 10 µM", "setting": "NDR2", "result": 85, "unit": "%"}, {"measurement": "remaining binding at 10 µM", "setting": "MARK1", "result": 99, "unit": "%"}, {"measurement": "remaining binding at 10 µM", "setting": "TIE2", "result": 100, "unit": "%"}, {"measurement": "remaining binding at 10 µM", "setting": "RET (M918T)", "result": 56, "unit": "%"}, {"measurement": "remaining binding at 10 µM", "setting": "TAOK2", "result": 80, "unit": "%"}, {"measurement": "remaining binding at 10 µM", "setting": "MUSK", "result": 96, "unit": "%"}, {"measurement": "remaining binding at 10 µM", "setting": "PCTK1", "result": 89, "unit": "%"}, {"measurement": "remaining binding at 10 µM", "setting": "AAK1", "result": 62, "unit": "%"}, {"measurement": "remaining binding at 10 µM", "setting": "[1]", "result": 100, "unit": "%"}, {"measurement": "remaining binding at 10 µM", "setting": "PIK4CB", "result": 90, "unit": "%"}, {"measurement": "remaining binding at 10 µM", "setting": "PIK3C2G", "result": 100, "unit": "%"}, {"measurement": "remaining binding at 10 µM", "setting": "PLK2", "result": 71, "unit": "%"}, {"measurement": "remaining binding at 10 µM", "setting": "PFPK5 P. falciparum", "result": 100, "unit": "%"}, {"measurement": "remaining binding at 10 µM", "setting": "[2]", "result": 71, "unit": "%"}, {"measurement": "remaining binding at 10 µM", "setting": "GRK4", "result": 97, "unit": "%"}, {"measurement": "remaining binding at 10 µM", "setting": "ERK3", "result": 88, "unit": "%"}, {"measurement": "remaining binding at 10 µM", "setting": "ROCK2", "result": 71, "unit": "%"}, {"measurement": "remaining binding at 10 µM", "setting": "TGFBR1", "result": 92, "unit": "%"}, {"measurement": "remaining binding at 10 µM", "setting": "STK16", "result": 81, "unit": "%"}, {"measurement": "remaining binding at 10 µM", "setting": "EPHA7", "result": 82, "unit": "%"}, {"measurement": "remaining binding at 10 µM", "setting": "MST2", "result": 89, "unit": "%"}, {"measurement": "remaining binding at 10 µM", "setting": "BMPR1A", "result": 100, "unit": "%"}, {"measurement": "remaining binding at 10 µM", "setting": "MINK", "result": 57, "unit": "%"}, {"measurement": "remaining binding at 10 µM", "setting": "SGK3", "result": 98, "unit": "%"}, {"measurement": "remaining binding at 10 µM", "setting": "EPHB6", "result": 64, "unit": "%"}, {"measurement": "remaining binding at 10 µM", "setting": "PCTK3", "result": 84, "unit": "%"}]}
